# Experimental data reported in PubChem BioAssay AID1963845 (Molecular Pharmacology Branch, DTP, NCI, 2024).
# Tested on: 429239-143-T-J1-PDC complex spheroid viability
# Experiment: Anticancer human tumor 429239-143-T-J1-PDC patient-derived small cell lung carcinoma cell line growth inhibition [POLQ]
# Conditions: for IC50: curve of first compound; for viability, T/C: stronger effect = lower value
# In short: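 Complex spheroid viability model combining PDC tumour cells with endothelial (HUVEC) and MSC stromal cells. Novobiocin, ART-558 or RP6685 were tested singly and in combination with standard and investigational anticancer drugs. Each was titrated in half-log steps from near clinical Cmax, or from 10 microM where Cmax was unknown.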
# [1] = second compound 0.0316 µM, first compound 0.0316 µM
# [2] = second compound 0.0316 µM, first compound 0.1 µM
# [3] = second compound 0.0316 µM, first compound 0.316 µM
# [4] = second compound 0.0316 µM, first compound 1 µM
# [5] = second compound 0.0316 µM, first compound 3.16 µM
# [6] = second compound 0.0316 µM, first compound 10 µM
# [7] = second compound 0.1 µM, first compound 0.0316 µM
# [8] = second compound 0.1 µM, first compound 0.1 µM
# [9] = second compound 0.1 µM, first compound 0.316 µM
# [10] = second compound 0.1 µM, first compound 1 µM
# [11] = second compound 0.1 µM, first compound 3.16 µM
# [12] = second compound 0.1 µM, first compound 10 µM
# [13] = second compound 0.316 µM, first compound 0.0316 µM
# [14] = second compound 0.316 µM, first compound 0.1 µM
# [15] = second compound 0.316 µM, first compound 0.316 µM
# [16] = second compound 0.316 µM, first compound 1 µM
# [17] = second compound 0.316 µM, first compound 3.16 µM
# [18] = second compound 0.316 µM, first compound 10 µM
# [19] = second compound 1 µM, first compound 0.0316 µM
# [20] = second compound 1 µM, first compound 0.1 µM
# [21] = second compound 1 µM, first compound 0.316 µM
# [22] = second compound 1 µM, first compound 1 µM
# [23] = second compound 1 µM, first compound 3.16 µM
# [24] = second compound 1 µM, first compound 10 µM
# [25] = second compound 3.16 µM, first compound 0.0316 µM
# [26] = second compound 3.16 µM, first compound 0.1 µM
# [27] = second compound 3.16 µM, first compound 0.316 µM
# [28] = second compound 3.16 µM, first compound 1 µM
# [29] = second compound 3.16 µM, first compound 3.16 µM
# [30] = second compound 3.16 µM, first compound 10 µM
# [31] = second compound 10 µM, first compound 0.0316 µM
# [32] = second compound 10 µM, first compound 0.1 µM
# [33] = second compound 10 µM, first compound 0.316 µM
# [34] = second compound 10 µM, first compound 1 µM
# [35] = second compound 10 µM, first compound 3.16 µM
# [36] = second compound 10 µM, first compound 10 µM
# 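Note: luminescence signal used as surrogate measure of viable cells; spheroids exposed to compounds for seven days before readout.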
# 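Throughout, for viability, T/C: 100% = DMSO vehicle control viability as luminescence relative to vehicle.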
compound,measurement,setting,value
CNCc1ccc(-c2[nH]c3cc(F)cc4c3c2CCNC4=O)cc1 + Nc1ccc(C#CCN(C(=O)Cc2ncc(C(F)(F)F)cc2C(F)(F)F)c2ccc(F)cc2)nn1,IC50,second compound 0.0316 µM,6.53 µM
same,IC50,second compound 0.1 µM,6.07 µM
same,IC50,second compound 0.316 µM,6.32 µM
same,IC50,second compound 1 µM,5.54 µM
same,IC50,second compound 3.16 µM,6.09 µM
same,IC50,second compound 10 µM,5.96 µM
same,"viability, T/C",[1],98.7%
same,"viability, T/C",[2],99.6%
same,"viability, T/C",[3],97.7%
same,"viability, T/C",[4],94.6%
same,"viability, T/C",[5],82.4%
same,"viability, T/C",[6],30.9%
same,"viability, T/C",[7],92.7%
same,"viability, T/C",[8],88.4%
same,"viability, T/C",[9],90.6%
same,"viability, T/C",[10],86.8%
same,"viability, T/C",[11],80.6%
same,"viability, T/C",[12],26.5%
same,"viability, T/C",[13],97.2%
same,"viability, T/C",[14],94.7%
same,"viability, T/C",[15],98.5%
same,"viability, T/C",[16],93.5%
same,"viability, T/C",[17],79.4%
same,"viability, T/C",[18],30.6%
same,"viability, T/C",[19],106%
same,"viability, T/C",[20],96.1%
same,"viability, T/C",[21],86.3%
same,"viability, T/C",[22],84.8%
same,"viability, T/C",[23],79.3%
same,"viability, T/C",[24],24%
same,"viability, T/C",[25],104%
same,"viability, T/C",[26],92.2%
same,"viability, T/C",[27],94.7%
same,"viability, T/C",[28],90.7%
same,"viability, T/C",[29],75.1%
same,"viability, T/C",[30],31.4%
same,"viability, T/C",[31],101%
same,"viability, T/C",[32],80.5%
same,"viability, T/C",[33],87.6%
same,"viability, T/C",[34],83%
same,"viability, T/C",[35],81.8%
same,"viability, T/C",[36],24.1%
COc1cc2cc(C(=O)CCC(=O)O)sc2cc1OC + Nc1ccc(C#CCN(C(=O)Cc2ncc(C(F)(F)F)cc2C(F)(F)F)c2ccc(F)cc2)nn1,IC50,second compound 0.0316 µM,> 10 µM
same,IC50,second compound 0.1 µM,> 10 µM
same,IC50,second compound 0.316 µM,> 10 µM
same,IC50,second compound 1 µM,> 10 µM
same,IC50,second compound 3.16 µM,> 10 µM
same,IC50,second compound 10 µM,> 10 µM
same,"viability, T/C",[1],90.4%
same,"viability, T/C",[2],108%
same,"viability, T/C",[3],89.8%
same,"viability, T/C",[4],107%
same,"viability, T/C",[5],106%
same,"viability, T/C",[6],119%
same,"viability, T/C",[7],106%
same,"viability, T/C",[8],113%
same,"viability, T/C",[9],101%
same,"viability, T/C",[10],106%
same,"viability, T/C",[11],103%
same,"viability, T/C",[12],97.4%
same,"viability, T/C",[13],105%
same,"viability, T/C",[14],109%
same,"viability, T/C",[15],96.8%
same,"viability, T/C",[16],117%
same,"viability, T/C",[17],95.4%
same,"viability, T/C",[18],101%
same,"viability, T/C",[19],105%
same,"viability, T/C",[20],106%
same,"viability, T/C",[21],94.8%
same,"viability, T/C",[22],97.9%
same,"viability, T/C",[23],100%
same,"viability, T/C",[24],105%
same,"viability, T/C",[25],97%
same,"viability, T/C",[26],107%
same,"viability, T/C",[27],103%
same,"viability, T/C",[28],104%
same,"viability, T/C",[29],94.9%
same,"viability, T/C",[30],99.8%
same,"viability, T/C",[31],96.9%
same,"viability, T/C",[32],105%
same,"viability, T/C",[33],108%
same,"viability, T/C",[34],98.2%
same,"viability, T/C",[35],99.9%
same,"viability, T/C",[36],98.3%
C#Cc1c(F)ccc2cc(O)cc(-c3ncc4c(N5CC6CCC(C5)N6)nc(OCC56CCCN5CC(F)C6)nc4c3F)c12 (stereo not drawn) + COC1C(OC(N)=O)C(O)C(Oc2ccc3c(O)c(NC(=O)c4ccc(O)c(CC=C(C)C)c4)c(=O)oc3c2C)OC1(C)C,IC50,second compound 0.0316 µM,> 10 µM
same,IC50,second compound 0.1 µM,> 10 µM
same,IC50,second compound 0.316 µM,> 10 µM
same,IC50,second compound 1 µM,> 10 µM
same,IC50,second compound 3.16 µM,> 10 µM
same,IC50,second compound 10 µM,> 10 µM
same,"viability, T/C",[1],109%
same,"viability, T/C",[2],92.7%
same,"viability, T/C",[3],113%
same,"viability, T/C",[4],92.9%
same,"viability, T/C",[5],99.9%
same,"viability, T/C",[6],92.9%
same,"viability, T/C",[7],104%
same,"viability, T/C",[8],113%
same,"viability, T/C",[9],103%
same,"viability, T/C",[10],97.7%
same,"viability, T/C",[11],93.2%
same,"viability, T/C",[12],91.1%
same,"viability, T/C",[13],104%
same,"viability, T/C",[14],95.3%
same,"viability, T/C",[15],99.2%
same,"viability, T/C",[16],98.8%
same,"viability, T/C",[17],95.2%
same,"viability, T/C",[18],106%
same,"viability, T/C",[19],94.7%
same,"viability, T/C",[20],106%
same,"viability, T/C",[21],96%
same,"viability, T/C",[22],105%
same,"viability, T/C",[23],98.8%
same,"viability, T/C",[24],97.4%
same,"viability, T/C",[25],103%
same,"viability, T/C",[26],101%
same,"viability, T/C",[27],102%
same,"viability, T/C",[28],92.9%
same,"viability, T/C",[29],114%
same,"viability, T/C",[30],98.2%
same,"viability, T/C",[31],101%
same,"viability, T/C",[32],98.7%
same,"viability, T/C",[33],91.5%
same,"viability, T/C",[34],92.5%
same,"viability, T/C",[35],106%
same,"viability, T/C",[36],102%
COc1cccc(OCCCN)c1-c1cc(Nc2cnc(C#N)cn2)n[nH]1 + COC1C(OC(N)=O)C(O)C(Oc2ccc3c(O)c(NC(=O)c4ccc(O)c(CC=C(C)C)c4)c(=O)oc3c2C)OC1(C)C,IC50,second compound 0.0316 µM,0.0821 µM
same,IC50,second compound 0.1 µM,0.069 µM
same,IC50,second compound 0.316 µM,0.0696 µM
same,IC50,second compound 1 µM,0.0645 µM
same,IC50,second compound 3.16 µM,0.0579 µM
same,IC50,second compound 10 µM,0.0549 µM
same,"viability, T/C","second compound 0.0316 µM, first compound 0.00316 µM",98.8%
same,"viability, T/C","second compound 0.0316 µM, first compound 0.01 µM",94.7%
same,"viability, T/C",[1],79.8%
same,"viability, T/C",[2],42.2%
same,"viability, T/C",[3],32%
same,"viability, T/C",[4],21.3%
same,"viability, T/C","second compound 0.1 µM, first compound 0.00316 µM",93.6%
same,"viability, T/C","second compound 0.1 µM, first compound 0.01 µM",92.8%
same,"viability, T/C",[7],66.6%
same,"viability, T/C",[8],42.1%
same,"viability, T/C",[9],26.6%
same,"viability, T/C",[10],21%
same,"viability, T/C","second compound 0.316 µM, first compound 0.00316 µM",99.7%
same,"viability, T/C","second compound 0.316 µM, first compound 0.01 µM",99%
same,"viability, T/C",[13],72.8%
same,"viability, T/C",[14],39.1%
same,"viability, T/C",[15],27.1%
same,"viability, T/C",[16],20.4%
same,"viability, T/C","second compound 1 µM, first compound 0.00316 µM",90.8%
same,"viability, T/C","second compound 1 µM, first compound 0.01 µM",99.1%
same,"viability, T/C",[19],70.9%
same,"viability, T/C",[20],37.3%
same,"viability, T/C",[21],30.3%
same,"viability, T/C",[22],24%
same,"viability, T/C","second compound 3.16 µM, first compound 0.00316 µM",96.3%
same,"viability, T/C","second compound 3.16 µM, first compound 0.01 µM",99.4%
same,"viability, T/C",[25],66.7%
same,"viability, T/C",[26],35.3%
same,"viability, T/C",[27],28.5%
same,"viability, T/C",[28],23.1%
same,"viability, T/C","second compound 10 µM, first compound 0.00316 µM",83.6%
same,"viability, T/C","second compound 10 µM, first compound 0.01 µM",83.5%
same,"viability, T/C",[31],64.7%
same,"viability, T/C",[32],33.5%
same,"viability, T/C",[33],34%
same,"viability, T/C",[34],23.4%
